Test results taken from patent publication US20100298136A1, “ACTIVE INGREDIENT COMBINATIONS WITH INSECTICIDAL PROPERTIES” (BAYER CROPSCIENCE AG, priority 2006, published 2010).

Experiments:
[1] = test system: green peach aphid (Myzus persicae); experiment: Myzus persicae test (cabbage leaf dip); assay type: in vivo; settings: single active compound, 0.16 ppm
Procedure: (§1) Solvent: 7 parts by weight of dimethylformamide Emulgator: 2 parts by weight of alkylaryl polyglycol ether
(§2) To produce a suitable preparation of active compound, 1 part by weight of active compound is mixed with the stated amounts of solvent and emulsifier, and the concentrate is diluted with water to the desired concentration.
Cabbage leaves (Brassica oleracea) which are heavily infested by the green peach aphid (Myzus persicae) are treated by being dipped into the preparation of active compound of the desired concentration.
After the desired period of time, the kill in % is determined. 100% means that all aphids have been killed; 0% means that none of the aphids have been killed. The kill rates determined are entered into the Colby formula (see sheet 1).

[2] = test system: larvae of the mustard beetle (Phaedon cochleariae); experiment: Phaedon cochleariae larvae test (cabbage leaf dip); assay type: in vivo; settings: single active compound
Procedure: Phaedon cochleariae Larvae Test
as §1, §2
Cabbage leaves (Brassica oleracea) are treated by being dipped into the preparation of active compound of the desired concentration and populated with larvae of the mustard beetle (Phaedon cochleariae) while the leaves are still moist.
After the desired period of time, the kill in % is determined. 100% means that all beetle larvae have been killed; 0% means that none of the beetle larvae have been killed. The kill rates determined are entered into the Colby formula (see sheet 1).

CN(Cc1ccc(Cl)nc1)C1=CC(=O)OC1 [compound (Ia)]
Kill in % after 6d [1]: 10% | Kill in % after 4d ([2]; 4 ppm): 5% | Kill in % after 4d ([2]; 20 ppm): 16%

O=[N+]([O-])/N=C1\NCCN1Cc1ccc(Cl)nc1 [imidacloprid, reference compound]
Kill in % after 6d [1]: 20% | Kill in % after 4d ([2]; 20 ppm): 53%
